pKi: −log10 of the molar value. Where a SMILES comes first, the peptide text is derived from it. [ ]: non-standard residue; d: D form. Nle = CCCC[C@H](N)C(=O)O
Columns and labels:
[1] = biological target: Cathepsin B (Homo sapiens, UniProt P07858); experiment: Equilibrium dissociation constant for the inhibition of human cathepsin B was determined
[2] = biological target: T1, Calpain-1 catalytic subunit (Homo sapiens, UniProt P07384); experiment: Equilibrium dissociation constant for the inhibition of human Mu-calpain was determined
T1 sequence (P07384 whole entry): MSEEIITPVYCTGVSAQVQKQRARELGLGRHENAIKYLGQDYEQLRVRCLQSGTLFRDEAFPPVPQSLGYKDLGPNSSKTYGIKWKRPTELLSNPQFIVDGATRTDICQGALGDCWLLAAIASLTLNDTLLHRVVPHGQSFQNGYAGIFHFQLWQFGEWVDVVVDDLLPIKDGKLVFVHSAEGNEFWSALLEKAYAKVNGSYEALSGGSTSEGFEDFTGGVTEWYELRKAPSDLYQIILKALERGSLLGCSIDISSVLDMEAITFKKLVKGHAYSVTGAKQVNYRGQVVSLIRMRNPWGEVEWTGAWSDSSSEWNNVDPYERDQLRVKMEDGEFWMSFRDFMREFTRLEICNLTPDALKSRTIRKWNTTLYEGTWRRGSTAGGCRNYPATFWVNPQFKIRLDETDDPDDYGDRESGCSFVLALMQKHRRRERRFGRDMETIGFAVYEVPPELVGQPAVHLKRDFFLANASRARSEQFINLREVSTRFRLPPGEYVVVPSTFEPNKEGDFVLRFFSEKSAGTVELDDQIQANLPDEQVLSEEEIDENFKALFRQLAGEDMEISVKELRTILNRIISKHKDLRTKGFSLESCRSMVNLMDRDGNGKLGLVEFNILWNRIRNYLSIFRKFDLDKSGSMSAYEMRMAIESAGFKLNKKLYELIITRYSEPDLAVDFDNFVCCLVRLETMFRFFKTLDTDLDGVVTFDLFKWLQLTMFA

- pKi [1]: 9.00
- pKi [2]: 8.47
SMILES: CCCC[C@H](NC(=O)[C@H](CC(C)C)NC(=O)[C@H](CC(C)C)NC(C)=O)C(=O)O (Ac-Leu-Leu-[Nle]-OH)

— ChEMBL document CHEMBL1130546, “Oligopresentation of protease inhibitors with -cyclodextrin as template” (Bioorg Med Chem Lett, 1997)
